One experiment concerns the target T1, OsMAX1-900 (Oryza sativa, UniProt M9R6D3).
T1 construct: gene Os01g0700900
T1 sequence (M9R6D3 1-539): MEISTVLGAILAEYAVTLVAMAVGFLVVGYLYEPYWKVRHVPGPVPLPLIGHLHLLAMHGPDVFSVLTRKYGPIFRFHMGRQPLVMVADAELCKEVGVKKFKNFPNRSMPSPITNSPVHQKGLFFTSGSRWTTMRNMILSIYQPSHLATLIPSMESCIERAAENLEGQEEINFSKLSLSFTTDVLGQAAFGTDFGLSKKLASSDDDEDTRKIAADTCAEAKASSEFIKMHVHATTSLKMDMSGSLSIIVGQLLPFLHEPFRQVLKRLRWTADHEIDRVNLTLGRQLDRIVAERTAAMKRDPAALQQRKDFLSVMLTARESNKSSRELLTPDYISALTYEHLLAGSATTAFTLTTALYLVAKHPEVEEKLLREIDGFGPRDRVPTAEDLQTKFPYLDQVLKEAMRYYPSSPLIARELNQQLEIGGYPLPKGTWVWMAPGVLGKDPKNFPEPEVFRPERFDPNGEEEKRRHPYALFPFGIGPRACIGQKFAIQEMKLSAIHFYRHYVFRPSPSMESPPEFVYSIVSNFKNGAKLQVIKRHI
Briefly: LC-MS/MS enzyme assay (CL to CLA, CLA to 4DO) with microsomes of yeast overexpressing the enzyme. It counts as biochemical.

The target in another experiment is T2, OsMAX1-1400 (Oryza sativa, UniProt W5QV10).
T2 construct: gene Os01g0701400
T2 sequence (W5QV10 1-541): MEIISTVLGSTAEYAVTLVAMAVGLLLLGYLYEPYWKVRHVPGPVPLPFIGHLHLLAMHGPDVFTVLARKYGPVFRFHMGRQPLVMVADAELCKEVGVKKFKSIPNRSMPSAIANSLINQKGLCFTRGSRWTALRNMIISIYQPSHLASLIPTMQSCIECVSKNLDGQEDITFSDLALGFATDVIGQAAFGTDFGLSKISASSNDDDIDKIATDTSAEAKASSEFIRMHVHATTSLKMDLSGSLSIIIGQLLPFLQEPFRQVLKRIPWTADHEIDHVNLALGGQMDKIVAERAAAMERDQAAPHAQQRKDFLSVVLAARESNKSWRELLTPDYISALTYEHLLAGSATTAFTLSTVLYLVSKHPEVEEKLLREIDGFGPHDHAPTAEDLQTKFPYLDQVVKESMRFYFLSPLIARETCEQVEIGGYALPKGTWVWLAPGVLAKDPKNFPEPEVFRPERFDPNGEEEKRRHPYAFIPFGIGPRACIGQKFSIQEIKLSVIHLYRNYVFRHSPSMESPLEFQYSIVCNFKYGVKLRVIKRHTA
Briefly: LC-MS/MS enzyme assay (4DO to orobanchol) with microsomes of yeast overexpressing the enzyme. The format is biochemical.

The values below come from paper PMC9629705, “Canonical strigolactones are not the major determinant of tillering but important rhizospheric signals in rice” (Science Advances, 2022).

SMILES strings stand for the structures.

What is called IC50 is the midpoint of a concentration-inhibition curve. High values mean lower potency, low ones higher potency. Take `O=C(c1ccccc1)C(CCCCOc1ccccc1)n1cncn1` (centres unmarked) [TIS108]: the IC50 came out at 150 nM at OsMAX1-900 and 20 nM against OsMAX1-1400.
